# From patent publication US9796714B2, “Calcium channel agonists” (University of Pittsburgh—Of the Commonwealth System of …, priority 2013, dated 2017)
# Columns and labels:
# [1] = molecular target: T1, N-type Ca^2+ channel (Cav2.2) (Rattus norvegicus, UniProt Q02294); test: N-type Ca2+ channel agonist activity, whole-cell perforated patch clamp of tail currents in tsA201 cells; format: cell-based; conditions: for EC50: whole cell perforated patch clamp, deactivation (tail) currents from N-type channels, read-out: N-Type Ca^2+ Channel Activity EC50 +/− SEM
# T1 construct: expressed in transfected cells; later also transient transfection
# Description: tsA201 cells expressing calcium channels. […] For subsequent evaluation of effects on N-, P/Q-, or L-type channels, tsA-201 cells were transiently transfected with Cav2.2, Cav2.1, or Cav1.3, in combination with Cavβ3 and […] (Addgene, Cambridge Mass.) using FuGENE 6 (Life Technologies, Grand Island, N.Y.). All cells were maintained in DMEM supplemented with 10% fetal bovine serum. For the stable cell line expressing N-type channels, 25 μg/mL zeocin, 5 μg/mL blasticidin, and 25 μg/mL hygromycin were added as selection agents.
# Whole-cell patch clamp recordings of calcium current. […] Briefly, the pipette solution consisted of […] Cs2SO4, 60 mM CsCl, 1 mM MgCl2, 10 mM 4-(2-hydroxyethyl)-1-piperazineethanesulfonic acid (HEPES) at pH 7.4. […] Patch pipettes were fabricated from borosilicate glass and pulled to a resistance of about 1 MΩ. Before each experiment, a stock solution consisting of 3 mg amphotericin-B dissolved into 50 μL anhydrous DMSO was made. […] Capacitive currents and passive membrane responses to voltage commands were subtracted from the data. Currents were amplified by an Axopatch 200B amplifier, filtered at 5 KHz, and digitized at 10 KHz for subsequent analysis using pClamp software (Axon Instruments/Molecular Devices; Sunnyvale, Calif.). […] To measure effects on calcium channel tail currents, the tail current integral was measured before and after application of a derivative, with the integral of each trace being normalized to its peak. All experiments were carried out at room temperature (22° C.). […] All other salts and chemicals were obtained from Sigma-Aldrich chemical company (St. Louis, Mo.).
# Statistical Analysis. Statistical analysis was performed using either GraphPad Prism 5 (GraphPad Software, Inc.) or Origin 7 (OriginLab) software. For the dose-response analyses on Ca^2+ current, each concentration of the four different compounds was tested in 3-6 cells. […] All EC50 and IC50 values and their respective errors were determined by performing 100 iterations of a logistic function curve fit. Data are presented as mean±s.e.m. unless otherwise noted.
# LEMS model NMJs = test: Intracellular recordings at LEMS model mouse NMJs, 13x, DAP and combination (Example 4); conditions: 50 μM 13x, […] DAP, or both
# Description: To test this, intracellular microelectrode recordings were performed on ex vivo nerve-muscle preparations taken from LEMS passive-transfer model mice and measured the magnitude of acetylcholine released at the neuromuscular junction. The most sensitive method of quantifying the magnitude of acetylcholine released is to determine the quantal content. Quantal content is defined as the number of neurotransmitter-containing synaptic vesicles that are released from the nerve terminal during a single action potential stimulus. This value was determined by first measuring the area under the average action potential-evoked endplate potential (EPP) and then dividing this value by the area under the average single vesicle release event (miniature endplate potential; mEPP). This value could be compared between experimental groups to provide an accurate measurement of changes in the magnitude of acetylcholine released during a single action potential. Using this approach, the quantal content among five experimental conditions was compared: control NMJs, LEMS NMJs, LEMS NMJs exposed to 50 μM 13x, LEMS NMJs exposed to 1.5 μM DAP, and LEMS NMJs exposed to 50 μM 13x+1.5 μM DAP (FIG. 10). […]; EPP amplitude=10.18±0.62 mV) as compared with control serum treated mouse NMJs (QC=107.5±3.6; EPP amplitude=34.62±1.37 mV; Tarr et al., 2013). […] In fact, this 13x-mediated enhancement was very similar to what was observed after exposure of LEMS model NMJs to 1.5 μM DAP (QC=49.0±4.4; EPP amplitude=17.94±1.381 mV). […]; EPP amplitude=34.62±1.37 mV; Tarr et al., 2013). […] In summary, while either 13x or DAP alone caused about an 80% increase in transmitter release from LEMS model NMJs, the combination of 13x plus DAP caused about a 300% increase in transmitter release.
# [2] = cited from earlier work
# [3] = tested on: LEMS passive transfer mouse NMJs; test: Intracellular recordings at LEMS passive transfer mouse NMJs, ex vivo ETA nerve-muscle preparation (Example 3); conditions: 50 μM, mean±SD, aBC2 LEMS passive transfer NMJs
# Description: LEMS passive transfer. To test GV-58 in a LEMS model NMJ, an established LEMS passive transfer mouse model was utilized. To perform the passive transfer of LEMS, mice were injected with the serum of patients diagnosed with LEMS. […] Each serum sample was tested for the presence of voltage-gated Ca^2+ channel antibodies using a Ca^2+ channel antibody radioimmune assay (Kronus RIA kit, Star, Id.). Control serum was obtained from the University of Pittsburgh Medical Center blood bank. […]; 25-32 g; Charles River Laboratories) were divided into two groups: one group that received LEMS serum, and a control group that received control serum.
# Intracellular recordings at mouse NMJs. […] A thin upper arm muscle, the epitrochleoanconeus (ETA), was chosen for these recordings. […] […]. A train of 10 EPPs was also collected in each muscle fiber using an inter-stimulus interval of 20 msec. To analyze the data, both the amplitudes and the areas under the waveforms (integral) were determined after correcting each digitized point in each trace for non-linear summation. Data were collected and analyzed using an Axoclamp 900A and the pClamp 10 suite of programs (Molecular Devices, Sunnyvale, Calif.).
# Statistical Analysis. […] For the dose-response analyses on Ca^2+ current, each concentration of the four different compounds was tested in 3-6 cells. […]. All EC50 and IC50 values and their respective errors were determined by performing 100 iterations of a logistic function curve fit.
# [4] = oral administration to patients
# T1 sequence (Q02294 whole entry): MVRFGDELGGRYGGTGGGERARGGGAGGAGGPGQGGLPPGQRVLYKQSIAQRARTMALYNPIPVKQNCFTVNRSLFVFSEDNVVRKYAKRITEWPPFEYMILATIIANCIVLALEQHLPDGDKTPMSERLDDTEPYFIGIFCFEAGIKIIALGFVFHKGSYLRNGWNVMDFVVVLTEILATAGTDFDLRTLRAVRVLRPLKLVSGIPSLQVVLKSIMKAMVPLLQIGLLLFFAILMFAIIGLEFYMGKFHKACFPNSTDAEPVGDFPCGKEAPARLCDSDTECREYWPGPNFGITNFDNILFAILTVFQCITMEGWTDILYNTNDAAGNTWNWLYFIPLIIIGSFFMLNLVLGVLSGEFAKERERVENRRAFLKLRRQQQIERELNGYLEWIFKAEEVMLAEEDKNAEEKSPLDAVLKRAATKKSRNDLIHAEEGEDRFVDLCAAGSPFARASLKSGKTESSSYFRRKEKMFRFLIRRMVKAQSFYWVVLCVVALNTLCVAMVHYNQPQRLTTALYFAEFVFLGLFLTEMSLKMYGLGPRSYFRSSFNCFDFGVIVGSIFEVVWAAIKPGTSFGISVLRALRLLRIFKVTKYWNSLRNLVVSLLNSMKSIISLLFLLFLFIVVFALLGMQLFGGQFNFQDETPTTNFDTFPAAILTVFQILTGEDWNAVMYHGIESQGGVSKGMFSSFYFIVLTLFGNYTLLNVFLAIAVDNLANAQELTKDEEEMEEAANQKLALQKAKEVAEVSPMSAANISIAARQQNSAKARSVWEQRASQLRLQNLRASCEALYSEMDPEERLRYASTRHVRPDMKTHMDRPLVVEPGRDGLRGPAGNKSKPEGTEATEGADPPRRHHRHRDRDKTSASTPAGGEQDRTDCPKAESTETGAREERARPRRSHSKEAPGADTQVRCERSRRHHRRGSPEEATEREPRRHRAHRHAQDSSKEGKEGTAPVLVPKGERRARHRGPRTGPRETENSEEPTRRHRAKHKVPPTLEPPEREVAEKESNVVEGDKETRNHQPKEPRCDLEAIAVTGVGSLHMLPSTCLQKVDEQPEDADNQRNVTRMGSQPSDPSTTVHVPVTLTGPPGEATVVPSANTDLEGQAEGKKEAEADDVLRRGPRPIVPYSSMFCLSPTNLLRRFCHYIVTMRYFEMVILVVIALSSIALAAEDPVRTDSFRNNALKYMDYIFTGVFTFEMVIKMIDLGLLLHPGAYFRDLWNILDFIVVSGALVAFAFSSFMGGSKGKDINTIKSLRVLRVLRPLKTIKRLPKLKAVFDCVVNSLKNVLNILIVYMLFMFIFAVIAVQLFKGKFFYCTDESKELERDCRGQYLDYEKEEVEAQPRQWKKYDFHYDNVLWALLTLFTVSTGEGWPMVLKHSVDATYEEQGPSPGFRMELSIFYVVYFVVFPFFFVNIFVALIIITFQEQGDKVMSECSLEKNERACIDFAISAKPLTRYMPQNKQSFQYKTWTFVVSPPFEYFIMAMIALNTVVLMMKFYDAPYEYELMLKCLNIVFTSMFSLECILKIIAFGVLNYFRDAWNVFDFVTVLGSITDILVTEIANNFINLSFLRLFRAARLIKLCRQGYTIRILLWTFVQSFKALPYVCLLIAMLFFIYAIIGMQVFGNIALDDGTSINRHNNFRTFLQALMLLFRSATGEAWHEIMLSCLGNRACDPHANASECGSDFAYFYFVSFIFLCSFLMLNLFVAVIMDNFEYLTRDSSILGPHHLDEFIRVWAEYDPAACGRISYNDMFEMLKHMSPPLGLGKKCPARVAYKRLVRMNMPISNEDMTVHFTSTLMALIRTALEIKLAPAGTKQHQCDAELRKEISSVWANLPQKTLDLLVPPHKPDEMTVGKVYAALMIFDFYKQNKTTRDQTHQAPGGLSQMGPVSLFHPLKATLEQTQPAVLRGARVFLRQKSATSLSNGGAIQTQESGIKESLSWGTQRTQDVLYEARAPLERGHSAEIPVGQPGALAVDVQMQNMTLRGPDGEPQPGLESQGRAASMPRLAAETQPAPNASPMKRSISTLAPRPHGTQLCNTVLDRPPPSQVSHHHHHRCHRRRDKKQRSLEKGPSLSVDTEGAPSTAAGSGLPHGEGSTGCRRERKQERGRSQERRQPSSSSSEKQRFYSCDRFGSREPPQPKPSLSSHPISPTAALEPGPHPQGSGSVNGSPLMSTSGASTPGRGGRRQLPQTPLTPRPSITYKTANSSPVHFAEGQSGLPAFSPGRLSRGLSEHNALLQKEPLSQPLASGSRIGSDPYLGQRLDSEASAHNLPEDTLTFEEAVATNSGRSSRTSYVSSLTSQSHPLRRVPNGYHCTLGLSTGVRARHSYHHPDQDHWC
SMILES,EC50 [1],other results
"CC[C@H](CO)Nc1nc(NCc2ccc(-c3ccccc3)cc2)c2ncn(C)c2n1 [Compound 13h, (R)-2-(6-(Biphenyl-4-ylmethylamino)-9-methyl-9H-purin-2-ylamino)butan-1-ol]",> 100 µM,
"CC[C@H](CO)Nc1nc(NCC2CC2)c2ncn(C)c2n1 [Compound 13m, (R)-2-(6-(Cyclopropylmethylamino)-9-methyl-9H-purin-2-ylamino)butan-1-ol]",> 100 µM,
"CC[C@H](CO)Nc1nc(NCc2ccc(-c3ccccc3)cc2)c2ncn(C(C)C)c2n1 [Compound 13s, (R)-2-(6-(Biphenyl-4-ylmethylamino)-9-isopropyl-9H-purin-2-ylamino)butan-1-ol]",> 100 µM,
"CCCn1cnc2c(NCCc3ccccc3)nc(N[C@H](CC)CO)nc21 [Compound 13c, (R)-2-(6-(Phenethylamino)-9-propyl-9H-purin-2-ylamino)butan-1-ol]",> 100 µM,
"CC[C@H](CO)Nc1nc(NCc2cccnc2)c2ncn(C)c2n1 [Compound 13n, (R)-2-(9-Methyl-6-(pyridin-3-ylmethylamino)-9H-purin-2-ylamino)butan-1-ol]",> 100 µM,
"Nc1ccncc1N [DAP, 3,4-diaminopyridine, reference compound]",,"10th EPP of 50 Hz train as % of the first EPP (short-term plasticity) (LEMS model NMJs): ~132%; increase in transmitter release from LEMS model NMJs (LEMS model NMJs): ~80%; EPP amplitude (LEMS model NMJs; LEMS model NMJs): 17.94±1.381 mV; quantal content (QC, area of EPP divided by area of mEPP) (LEMS model NMJs; LEMS model NMJs, mean±s.e.m.): 49.0±4.4; serum levels ([2]; clinical trials, 10-20 mg 3 times per day): about 0.5 μM; peak serum levels [2, 4]: 70 to 150 ng/mL; peak serum levels, corresponding concentration [2, 4]: 0.5 to 1.5 µM"
"CC[C@H](CO)Nc1nc(NCc2cccc(C(F)(F)F)c2)c2ncn(C(C)C)c2n1 [Compound 13v, (R)-2-(9-Isopropyl-6-(3-(trifluoromethyl)benzylamino)-9H-purin-2-ylamino)butan-1-ol]",> 100 µM,
"CCCn1cnc2c(NCc3ccc(C(F)(F)F)cc3)nc(N[C@H](CC)CO)nc21 [Compound 13o, (R)-2-(9-Propyl-6-(4-(trifluoromethyl)benzylamino)-9H-purin-2-ylamino)butan-1-ol]",> 100 µM,
"CC[C@H](CO)Nc1nc(NCC2CC2)c2ncn(C(C)C)c2n1 [Compound 13p, (R)-2-(6-(Cyclopropylmethylamino)-9-isopropyl-9H-purin-2-ylamino)butan-1-ol]",> 100 µM,
"CC[C@H](CO)Nc1nc(NC(c2ccccc2)c2ccccc2)c2ncn(C(C)C)c2n1 [Compound 13t, (R)-2-(6-(Benzhydrylamino)-9-isopropyl-9H-purin-2-ylamino)butan-1-ol]",> 100 µM,
"CCCn1cnc2c(Nc3ccccc3)nc(N[C@H](CC)CO)nc21 [Compound 13e, (R)-2-(6-(Phenylamino)-9-propyl-9H-purin-2-ylamino)butan-1-ol]",> 100 µM,
"Cn1cnc2c(NCc3ccccc3)nc(NCCO)nc21 [olomoucine, reference compound]",,"quantal content (EPP peak amplitude divided by mEPP peak amplitude) [3]: 33.4±11.3; quantal content determined from the area (integral) under EPP and mEPP waveforms [3]: 34.6±11.2; quantal content (EPP peak amplitude divided by mEPP peak amplitude) ([3]; listed as oloumucine): slightly, but significantly smaller; quantal content determined from the area (integral) under EPP and mEPP waveforms ([3]; listed as oloumucine): not significantly different"
"CC[C@H](CO)Nc1nc(Nc2ccccc2)c2ncn(C)c2n1 [Compound 13l, (R)-2-(9-Methyl-6-(phenylamino)-9H-purin-2-ylamino)butan-1-ol]",> 100 µM,
"CCCn1cnc2c(NCc3ccccc3)nc(N[C@H](CC)CO)nc21 [Compound 13d, (R)-2-(6-(Benzylamino)-9-propyl-9H-purin-2-ylamino)butan-1-ol]",14.2 µM,increased Ca^2+ channel agonism vs. (R)-roscovitine ([1]; N-type): ca. 2 fold
"CCCn1cnc2c(NCc3ccc(-c4ccccc4)cc3)nc(N[C@H](CC)CO)nc21 [Compound 13a, (R)-2-(6-(Biphenyl-4-ylmethylamino)-9-propyl-9H-purin-2-ylamino)butan-1-ol]",> 100 µM,
"CC[C@H](CO)Nc1nc(NCc2cccnc2)c2ncn(C(C)C)c2n1 [Compound 13r, (R)-2-(9-Isopropyl-6-(pyridin-3-ylmethylamino)-9H-purin-2-ylamino)butan-1-ol]",> 100 µM,
"CCCn1cnc2c(NCC3CC3)nc(N[C@H](CC)CO)nc21 [Compound 13g, (R)-2-(6-(Cyclopropylmethylamino)-9-propyl-9H-purin-2-ylamino)butan-1-ol]",> 100 µM,agonist effect on the Ca^2+ channel tail currents (in words) ([1]; N-type): complete loss of N-type Ca^2+ channel activity
"CC[C@H](CO)Nc1nc(NCCc2ccccc2)c2ncn(C)c2n1 [Compound 13j, (R)-2-(9-Methyl-6-(phenethylamino)-9H-purin-2-ylamino)butan-1-ol]",> 100 µM,
"CC[C@H](CO)Nc1nc(NCCc2ccccc2)c2ncn(C(C)C)c2n1 [Compound 13q, (R)-2-(9-Isopropyl-6-(phenethylamino)-9H-purin-2-ylamino)butan-1-ol]",> 100 µM,
"CCCn1cnc2c(NCc3cccnc3)nc(N[C@H](CC)CO)nc21 [Compound 13f, (R)-2-(9-Propyl-6-(pyridin-3-ylmethylamino)-9H-purin-2-ylamino)butan-1-ol]",> 100 µM,
